Measurements published in US10806783B2, “Vaccine compositions” (priority 2014, dated 2020).

Tested on: Influenza virus
Format: in vivo
Conditions: Example 4, FIG. 3; BALB-c mice, subcutaneous, day 0 and day 21; various time points; 2 μg antigen, freeze-dried and stored at 45° C.

CN(C)CC(=O)O [dimethylglycine, Dimethylglycine]
HIA titre (effect with different excipients): antigen sparing effect and acceleration of onset of immunity observed with polyethyleneimine are also observed
